Experimental data published in US4088772A, “Methanodibenzocycloheptapyrroles” (E. I. Du Pont de Nemours and Company, priority 1975, dated 1978).
Where a name gives a salt, the structure may show the parent alone. Read-outs that look alike come from different tables or passages of the source.

Experiments:
female CF1 S mice = test: Mouse spontaneous motor activity (activity cage); type: in vivo, mouse (CF1 S female); details: 0.5 h, read-out: Exploratory Loss Activity Cage ED50
Procedure: Mouse Spontaneous Motor Activity (Activity Cage)
Twenty-four per dose, 16- 20 g or 18-22 g, female CF1 S mice, fasted 16- 22 hours, are intubated (in pairs) with drug at t doses such as 0, 1, 3, 9, 27 and 81 mg/kg in 10 ml/kg of aqueous 1% methylcellulose. The mice are then put in separate "shoe-box" cages (12 × 7.5 × 5.3 inches plastic with a 0.33 inch mesh stainless steel lid), and 20 minutes after intubation the animals in pairs are moved to covered Woodard Photoelectric Activity Chambers (central light source type measurement floor area = 96 in^2). Ten minutes later (30 minutes after dosing) a 5-minute count is taken. Counting chamber characteristics are balanced out by counting 2 pairs of mice from each dose level in each of 6 different counting chambers. Half of each test is run in the a.m. and the other half is run in the p.m. to minimize "biological clock" variations.
Canad. Biol. 20, 239-50 (1961), raw counts are thus transformed for statistical treatment (Student's t test). The means of the square roots then are squared and an ED50 for stimulation or depression (or both) is determined graphically.

[1] = system: phenylquinone-induced writhing; test: Phenylquinone writhing test (analgesia); type: in vivo, mouse (Carworth CF1 S female); details: Mus musculus
Source text: This mouse test is predictive of analgesic response in humans. [E. Siegmund, R. Cadmus and G. Lee, Proc. Soc.
ED50 values were obtained graphically from the data.

in vivo = details: mouse, in vivo, po
female white mice = test: animal or person; details: Mus musculus, po
Holzman male white rats = test: Rat approach-avoidance test (anti-anxiety); type: in vivo, rat (Holzman male white); details: in words
Procedure: Potential as anti-anxiety agents was assessed by means of the potency of these compounds in the rat approach-avoidance test.
Approach-Avoidance Test Method
18 hr. waterdeprived Holzman male white rats, 150-175 g each, were used. The apparatus consists of two interconnected chambers, the first in which the animal is placed, and a second which contains the stimulus and a water bottle. The second is fitted with an electrifiable floor. On the first day, the rats are placed in the first chamber. They are allowed three minutes to find the water bottle in the second chamber and to drink water for at least two seconds. After three successful trials on the first day the animals are given one predrug trial on the second day. Then follows a second predrug trial during which the floor of the second chamber is electrified 1.5 seconds after the rat has commenced drinking water. The animals are randomized, dosed orally, and reexposed to the test situation at 1, 2, or 4 hours after the shock trial.

[2] = read-out: Catatonia ED50, Table 1, oral, mice
[3] = read-out: Exploratory Loss Visual ED50, Table 1, oral, mice
[4] = read-out: Muscle Tone ED50, Table 1, oral, mice
[5] = read-out: Ptosis ED50, Table 1, oral, mice
[6] = read-out: Reflexes Grip ED50, Table 1, oral, mice
[7] = read-out: Reflexes Lift ED50, Table 1, oral, mice
[8] = read-out: Reflexes Pinna ED50, Table 1, oral, mice
[9] = Table 1, oral, mice, 30 minutes after dosing
[10] = read-out: Catatonia ED50, Table III, oral, mice
[11] = read-out: Exploratory Loss Visual ED50, Table III, oral, mice
[12] = read-out: Muscle Tone ED50, Table III, oral, mice
[13] = read-out: Ptosis ED50, Table III, oral, mice
[14] = read-out: Reflexes Grip ED50, Table III, oral, mice
[15] = read-out: Reflexes Lift ED50, Table III, oral, mice
[16] = read-out: Reflexes Pinna ED50, Table III, oral, mice

SMILES	LD50 at 24 h (in vivo) [mg/kg]	ED50 (female white mice; [2]) [mg/kg]	ED50 (female white mice; [3]) [mg/kg]	ED50 (female white mice; [4]) [mg/kg]	ED50 (female white mice; [5]) [mg/kg]	ED50 (female white mice; [6]) [mg/kg]	ED50 (female white mice; [7]) [mg/kg]	ED50 (female white mice; [8]) [mg/kg]	ED50 (female CF1 S mice; [9]) [mg/kg]	ED50 ([1]; po, Table 1, mice) [mg/kg]	ED50 (in vivo) [mg/kg]	also measured
c1ccc2c(c1)[C@@H]1C[C@@]3(CN(CC4CCC4)C[C@H]23)c2ccccc21 (relative stereo) [Example 19, 2-Cyclobutylmethyl-2,3,8,12b-tetrahydro-1H-3a,8-methanodibenzo[3,4:6,7]cyclohepta[1,2-c]pyrrole]	> 324	20	20	12	7	200	20	12				ED50 (female CF1 S mice; po): 1 mg/kg; ED50 ([1]; Table 1, oral, mice): 5 mg/kg; ED50 (in vivo; Tremors ED50, Table 1, mice): > 324 mg/kg
c1ccc2c(c1)[C@@H]1C[C@@]3(CN(C[C@@H]4C[C@H]5CC[C@@H]4C5)C[C@H]23)c2ccccc21 (relative stereo) [Example 35, 2-(2-Exo-bicyclo[2.2.1]heptylmethyl)-2,3,8,12b-tetrahydro-1H-3a,8-methanodibenzo[3,4:6,7]cyclohepta[1,2-c]pyrrole]	> 324	15	8.6	12	5.1	> 324	29	21	3.3	6.2	> 324	
CN(C)CCCN1c2ccccc2Sc2ccc(Cl)cc21 [Chlopromazine, Chlorpromazine, reference compound]												ED50 (female CF1 S mice; po): 7.3 mg/kg; anti-anxiety activity (Holzman male white rats): not active at non-sedating doses; ED50 (in vivo; Tremors ED50): > 324 mg/kg
c1ccc(CN2CC3c4ccccc4C4CC3(C2)c2ccccc24)cc1 (stereo not drawn) [Example 4, 2-Benzyl-2,3,8,12b-tetrahydro-1H-3a,8-methanodibenzo[3,4:6,7]cyclohepta[1,2-c]pyrrole]	> 324	20	20	20	20	> 324	36	300	4.6	9.4	> 324	
CCCCCCN1CC2c3ccccc3C3CC2(C1)c1ccccc13 (stereo not drawn) [Example 14, 2-n-Hexyl-2,3,8,12 b-tetrahydro-1H-3a,8-methanodibenzo[3,4:6,7]cyclohepta[1,2-c]pyrrole]	> 324	5.6	7	4.1	4.5	187	8.6	11	1.3	2.6	326	
CCCCCCCN1CC2c3ccccc3C3CC2(C1)c1ccccc13 (stereo not drawn) [Example 15, 2-n-Heptyl-2,3,8,12b-tetrahydro-1H-3a,8-methanodibenzo[3,4:6,7]cyclohepta[1,2-c]pyrrole]	> 324	5			< 3	260	9		1	3.6	> 324	ED50 (female white mice; read-out: Exploratory Loss Visual ED50, Table 1, Extrapolated value): 3.2 mg/kg; ED50 (female white mice; read-out: Muscle Tone ED50, Table 1, Extrapolated value): 3 mg/kg
C1=C(CN2CC3c4ccccc4C4CC3(C2)c2ccccc24)CCCC1 (stereo not drawn) [Example 26, 2-(1-Cyclohexenylmethyl)-2,3,8,12b-tetrahydro-1H-3a,8-methanodibenzo[3.4:6,7]cyclohepta[1,2-c]pyrrole]	> 324	10	12	7	6	400	15	15	0.8	6.8	> 324	
C1=CCC(CN2CC3c4ccccc4C4CC3(C2)c2ccccc24)CC1 (stereo not drawn) [Example 27, 2-(3-Cyclohexenylmethyl)-2,3,8,12b-tetrahydro-1H-3a,8-methanodibenzo[3,4:6,7]cyclohepta[1,2-c]pyrrole]	> 324	4.5	4.5	4.5	2.9	97	9	8	0.29	4.2	> 324	
CC1CCC(CN2C[C@@H]3c4ccccc4[C@@H]4C[C@@]3(C2)c2ccccc24)C1 (stereo partly drawn) [Example 52, 2-(3-Methylcyclopentylmethyl)-2,3,8,12b-tetrahydro-1H-3a,8-methanodibenzo[3,4:6,7]cyclohepta[1,2-c]-pyrrole]	> 324	12	12	12	7	200	12	7		5	> 324	
c1ccc2c(c1)[C@@H]1C[C@@]3(CN(CC4CCCO4)C[C@H]23)c2ccccc21 (stereo partly drawn) [Example 62, 2-(2-Tetrahydrofurylmethyl)-2,3,8,12b-tetrahydro-1H-3a,8-methanodibenzo[3,4:6,7]cyclohepta[1,2-c]pyrrole]	> 324	20	12	20		200	20			7		
CC(O)c1ccc2c(c1)[C@]13C[C@H]2c2ccccc2[C@H]1CN(CC1CCCC1)C3 (stereo partly drawn) [Example 67, 5-(α-Hydroxyethyl)-2-cyclopentylmethyl-2,3,8,12b-tetrahydro-1H-3a,8-methanodibenzo[3,4:6,7]cyclohepta[1,2-c]-pyrrole Hydrochloride]	> 450											ED50 ([1]; po, Table III, mice): 3.4 mg/kg; ED50 (female white mice; [10]): 5 mg/kg; ED50 (female white mice; [11]): 5 mg/kg; ED50 (female white mice; [12]): 6 mg/kg; ED50 (female white mice; [13]): 3.6 mg/kg; ED50 (female white mice; [14]): 187 mg/kg; ED50 (female white mice; [15]): 21 mg/kg; ED50 (female white mice; [16]): 5.6 mg/kg
C=CCC(O)c1ccc2c(c1)[C@]13C[C@H]2c2ccccc2[C@H]1CN(CC1CCCC1)C3 (stereo partly drawn) [Example 75, 5-[1-(1-Hydroxy-3-butenyl)]-2-cyclopentylmethyl-2,3,8,12b-tetrahydro-1H-3a,8-methanodibenzo[3,4:6,7]cyclohepta[1,2-c]pyrrole Hydrochloride]	> 324											ED50 ([1]; po, Table III, mice): 11 mg/kg; ED50 (female white mice; [10]): 36 mg/kg; ED50 (female white mice; [11]): 60 mg/kg; ED50 (female white mice; [12]): 36 mg/kg; ED50 (female white mice; [13]): 12 mg/kg; ED50 (female white mice; [14]): 200 mg/kg; ED50 (female white mice; [15]): 20 mg/kg; ED50 (female white mice; [16]): 7 mg/kg
